Legend:
[1] = target: T1, recombinant human Wee1A kinase (Homo sapiens, UniProt P30291); test: LanthaScreen Europium (Eu) Kinase Binding Assay, Wee1A kinase (TR-FRET tracer displacement); details: 30 nM tracer 178, 5 nM Wee1A kinase, 60 minutes at room temperature
T1 construct: full length Wee1A kinase was expressed by baculovirus in insect cells; purchased Invitrogen PV3817; host or cells: insect cells (baculovirus)
Excerpt: We used a LanthaScreen Europium (Eu) Kinase Binding Assay to determine the binding of provided compounds to Wee1A kinase. The assay utilizes an Alexa Fluor 647-labeled ATP competitive kinase tracer that binds to the ATP binding site of a GST-tagged Wee1A kinase, while a europium (Eu) labeled antibody binds to the GST tag. The proximity of fluorescently labeled kinase tracer and europium (Eu) donor fluorophore antibody leads to fluorescence resonance energy transfer (FRET) to the fluorescence label (acceptor) upon excitation of the Eu (donor). Displacement of tracer from the ATP-binding site by a test compound disturbs the proximity between both labels thus lowering the FRET.
This time resolved-FRET binding assay was performed in white 384-well low volume plates (Greiner, cat #784075), at room temperature in kinase buffer A (KBA; Invitrogen cat #PV3189), consisting of 50 mM HEPES-NaOH (pH 7.5), 0.01% Brij-35, 10 mM MgCl2, and 1 mM EGTA. 5 μl of compound (diluted in reaction buffer, to 1% DMSO) were added to various wells in the plate, followed by 5 μl each of recombinant human Wee1A kinase (full length Wee1A kinase was expressed by baculovirus in insect cells using a N-terminal GST tag (MW: 99.1 kDa) (Invitrogen cat #PV3817) and LanthaScreen Eu-anti-GST antibody (Invitrogen, cat #PV5594). After this, 5 μl of kinase tracer 178 (Invitrogen, cat #PV5593) was added to the plate and the plate was incubated for 60 minutes at room temperature. The final assay conditions in each well were: 30 nM tracer 178, 5 nM Wee1A kinase and 2 nM Eu-labeled antibody in total assay volume of 15 μl. An Envision 2104 (Perkin-Elmer) Plate Reader with the following time-resolve fluorescence setting was used for performing LanthaScreen kinase binding assay. • Excitation 320 nm (30 nm bandpass) • Kinase Tracer Emission 665 nm (10 nm bandpass) • LanthaScreen Eu-anti-Tag Antibody Emission 615 nm (10 nm bandpass) • Dichroic Mirror Instrument dependent • Delay Time 100 μs • Integration Time 200 μs
To calculate the emission ratio, the acceptor/tracer emission ([…]) was divided by the antibody/donor emission ([…]) and the average of duplicate measurement was used for calculations. Data plotting, analysis of binding, and curve fitting was done using Excel add-in XLfit version 5.5.0.5 (IDBS, Guildford, United Kingdom).

[2] = system: Cdk1 phosphorylated on tyrosine 15; test: High-content imaging of pCdk1 Y15 by immunofluorescence in ACHN cells; type: cell-based; details: Homo sapiens, high-content imaging (IF), 4 h, 7 to 5000 nM, read-out: CDK1 Tyr15 Phosphorylation EC50 (IC50)
Experimental: ACHN renal cell carcinoma cell line (ATCC) was cultured in Minimum Essential Medium Eagle supplemented with 10% fetal calf serum (Sigma), 1% Penicillin-Streptomycin and 10 mM HEPES buffer (HyClone). Cell cultures were kept in a humidified incubator at 37° C. and 5% CO2. Cells were routinely tested for Mycoplasma contamination.
High-content imaging of ACHN renal cell carcinoma cells was used for quantification of CDK1 phosphorylated on tyrosine 15 by immunofluorescence (“IF”). 20 000 cells per well were seeded in tissue culture treated 96 well plates and treated with compounds at concentrations ranging from 7 to 5000 nM for 4 h. Cells were fixated for 15 minutes in 4% paraformaldehyde solution, washed in PBS and permeabilized using 0.2% Triton X-100. Blocking was performed for 1 h at RT using Blocker FL Fluorescent Blocking Buffer (Thermo Scientific), thereafter cells were incubated with primary antibody (rabbit anti-pCDK1 Y^15, #4539, Cell Signaling Technology) at 4° C. ON. Alexa Fluor Plus 647 labelled goat anti-rabbit (A32733. Thermo Scientific) was used as secondary antibody. After washing in PBS, nuclei were stained with DAPI solution for 10 min at RT, protected from light. Cells were imaged using an ImageXpress Pico automated imaging system and CellReporter Xpress software (Molecular Devices). The percentage cells with nuclear positivity for pCdk1 Y^15 compared to DMSO control was determined for each well and drug dose response curves and EC50 values were calculated and visualized using GraphPad Prism.

T1 sequence (P30291 whole entry): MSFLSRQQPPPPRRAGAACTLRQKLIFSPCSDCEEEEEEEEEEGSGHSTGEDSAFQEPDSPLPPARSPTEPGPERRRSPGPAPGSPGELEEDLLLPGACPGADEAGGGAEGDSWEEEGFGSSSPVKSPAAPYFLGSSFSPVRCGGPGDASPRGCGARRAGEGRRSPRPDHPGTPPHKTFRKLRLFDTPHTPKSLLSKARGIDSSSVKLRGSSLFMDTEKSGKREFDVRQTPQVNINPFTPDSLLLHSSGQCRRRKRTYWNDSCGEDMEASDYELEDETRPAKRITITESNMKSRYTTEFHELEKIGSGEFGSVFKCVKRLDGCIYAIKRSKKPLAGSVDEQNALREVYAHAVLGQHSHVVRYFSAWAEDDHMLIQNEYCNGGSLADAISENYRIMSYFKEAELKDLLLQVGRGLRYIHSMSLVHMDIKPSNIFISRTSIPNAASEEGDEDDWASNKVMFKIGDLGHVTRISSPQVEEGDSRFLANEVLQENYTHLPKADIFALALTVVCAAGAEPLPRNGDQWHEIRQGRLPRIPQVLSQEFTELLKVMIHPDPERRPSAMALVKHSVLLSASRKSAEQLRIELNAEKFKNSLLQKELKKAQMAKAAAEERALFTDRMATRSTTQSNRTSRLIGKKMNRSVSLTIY

Row | IC50 [1] | EC50 [2] | SMILES
1 | ≤ 10 nM | 100 to 500 nM | COc1nc(Nc2ccc(C3CCN(C)CC3)c(Cl)c2)ncc1C(=O)Nc1c(Cl)cccc1Br [Compound 215, N-(2-bromo-6-chlorophenyl)-2-[3-chloro-4-(1-methyl-4-piperidyl)phenylamino]-4-methoxy-5-pyrimidinecarboxamide]
2 | ≤ 10 nM | > 1000 nM | COc1nc(Nc2cnn(C)c2)ncc1C(=O)Nc1c(Cl)ccc(O)c1Cl [Compound 223, N-(2,6-dichloro-3-hydroxyphenyl)-4-methoxy-2-((1-methyl-1H-pyrazol-4-yl)amino)pyrimidine-5-carboxamide]
3 | ≤ 10 nM | 100 to 500 nM | COc1nc(Nc2ccc3c(cnn3C3CCN(C)CC3)c2)ncc1C(=O)Nc1c(Cl)cccc1Cl [Compound 166]
4 | ≤ 10 nM | 100 to 500 nM | CCOc1nc(Nc2ccc(OC3CCN(C)CC3)c(C)c2)ncc1C(=O)Nc1c(Cl)cccc1Br [Compound 222]
5 | ≤ 10 nM | > 1000 nM | COc1nc(Nc2cnn([C@H]3CCCNCC3)c2)ncc1C(=O)Nc1c(Cl)cccc1Cl (single isomer, unassigned) [Compound 187]
6 | ≤ 10 nM | 100 to 500 nM | COc1nc(Nc2cnn([C@@H]3CCCN(C)CC3)c2)ncc1C(=O)Nc1c(Cl)cccc1Cl (single isomer, unassigned) [Compound 188]
7 | ≤ 10 nM | > 1000 nM | CCOc1nc(Nc2cnn([C@@H](C)CN(C)C)c2)ncc1C(=O)Nc1c(Cl)cccc1Br [Compound 202, N-(2-bromo-6-chlorophenyl)-2-{1-[(S)-2-(dimethylamino)-1-methylethyl]-4-pyrazolylamino}-4-ethoxy-5-pyrimidinecarboxamide]
8 | ≤ 10 nM | 100 to 500 nM | COc1nc(Nc2ccc(N3CCC4(CCN(C)CC4)CC3)cc2)ncc1C(=O)Nc1c(Cl)cccc1Br [Compound 209, N-(2-bromo-6-chlorophenyl)-4-methoxy-2-{p-(9-methyl-3,9-diaza-3-spiro[5.5]undecyl)phenylamino}-5-pyrimidinecarboxamide]
9 | ≤ 10 nM | 100 to 500 nM | C#Cc1cccc(Br)c1NC(=O)c1cnc(Nc2ccc(C3CCNCC3)c(C)c2)nc1OC [Compound 184, N-(2-bromo-6-ethynylphenyl)-4-methoxy-2-((3-methyl-4-(piperidin-4-yl)phenyl)amino)pyrimidine-5-carboxamide]
10 | ≤ 10 nM | > 1000 nM | COc1nc(Nc2cnn(C)c2)ncc1C(=O)Nc1c(C)ccc(O)c1C [Compound 224, N-(3-hydroxy-2,6-xylyl)-4-methoxy-2-(1-methyl-4-pyrazolylamino)-5-pyrimidinecarboxamide]

Continued, molecule first:

Row | SMILES | IC50 [1] | EC50 [2]
11 | COc1nc(Nc2ccc(C3CCN(C)CC3)c(C)c2)ncc1C(=O)Nc1ccccc1 [Compound 101, 4-methoxy-2-((3-methyl-4-(1-methylpiperidin-4-yl)phenyl)amino)-N-phenylpyrimidine-5-carboxamide] | 10 to 100 nM | > 1000 nM
12 | COc1nc(Nc2ccc(C3CCN(C)CC3)c(C)c2)ncc1C(=O)Nc1c(C)ccc(O)c1C [Compound 142, N-(3-hydroxy-2,6-dimethylphenyl)-4-methoxy-2-((3-methyl-4-(1-methylpiperidin-4-yl)phenyl)amino)pyrimidine-5-carboxamide] | ≤ 10 nM | ≤ 100 nM
13 | COc1nc(Nc2ccc(C3CCN(C)CC3)c(C)c2)ncc1C(=O)Nc1ccccc1Br [Compound 107, N-(2-bromophenyl)-4-methoxy-2-((3-methyl-4-(1-methylpiperidin-4-yl)phenyl)amino)pyrimidine-5-carboxamide] | ≤ 10 nM | > 1000 nM
14 | COc1nc(Nc2cnn(C[C@H]3CCNC3)c2)ncc1C(=O)Nc1c(Cl)cccc1Cl [Compound 165] | 10 to 100 nM | > 1000 nM
15 | CN1CCN(c2ccc(Nc3ncc(C(=O)Nc4c(Cl)cccc4Cl)c(OCCO)n3)cc2)CC1 [Compound 123, N-(2,6-dichlorophenyl)-4-(2-hydroxyethoxy)-2-((4-(4-methylpiperazin-1-yl)phenyl)amino)pyrimidine-5-carboxamide] | 10 to 100 nM | > 1000 nM
16 | COc1cccc(Cl)c1NC(=O)c1cnc(Nc2ccc(C3CCN(C)CC3)c(C)c2)nc1OC [Compound 130, N-(2-chloro-6-methoxyphenyl)-4-methoxy-2-((3-methyl-4-(1-methylpiperidin-4-yl)phenyl)amino)pyrimidine-5-carboxamide] | ≤ 10 nM | > 1000 nM
17 | COc1nc(Nc2ccc(C3CCN(C)CC3)c(C)c2)ncc1C(=O)Nc1cc(O)ccc1Cl [Compound 138, N-(2-chloro-5-hydroxyphenyl)-4-methoxy-2-((3-methyl-4-(1-methylpiperidin-4-yl)phenyl)amino)pyrimidine-5-carboxamide] | ≤ 10 nM | > 1000 nM
18 | COc1nc(Nc2ccc(OCCCN3CCOCC3)c(C)c2)ncc1C(=O)Nc1c(Cl)ccc(O)c1C [Compound 150, N-(6-chloro-3-hydroxy-2-methylphenyl)-4-methoxy-2-((3-methyl-4-(3-morpholinopropoxy)phenyl)amino)pyrimidine-5-carboxamide] | ≤ 10 nM | > 1000 nM
19 | COc1nc(Nc2ccc(OC3CCN(C)CC3)c(C)c2)ncc1C(=O)Nc1c(Cl)cccc1Cl [Compound 145, N-(2,6-dichlorophenyl)-4-methoxy-2-((3-methyl-4-((1-methylpiperidin-4-yl)oxy)phenyl)amino)pyrimidine-5-carboxamide] | ≤ 10 nM | 100 to 500 nM
20 | CN1CCN(c2ccc(Nc3ncc(C(=O)Nc4c(Cl)cccc4Cl)c(OC4CC4)n3)cc2)CC1 [Compound 102, 4-cyclopropoxy-N-(2,6-dichlorophenyl)-2-((4-(4-methylpiperazin-1-yl)phenyl)amino)pyrimidine-5-carboxamide] | ≤ 10 nM | 100 to 500 nM
21 | COc1nc(Nc2ccc(C3CCN(C)CC3)c(C)c2)ncc1C(=O)Nc1ccccc1C(F)(F)F [Compound 114, 4-methoxy-2-((3-methyl-4-(1-methylpiperidin-4-yl)phenyl)amino)-N-(2-(trifluoromethyl)phenyl)pyrimidine-5-carboxamide] | ≤ 10 nM | > 1000 nM
22 | COc1nc(Nc2ccc(OCCN(C)C)c(C)c2)ncc1C(=O)Nc1c(Cl)cccc1Cl [Compound 143, N-(2,6-dichlorophenyl)-2-((4-(2-(dimethylamino)ethoxy)-3-methylphenyl)amino)-4-methoxypyrimidine-5-carboxamide] | ≤ 10 nM | 100 to 500 nM
23 | COc1nc(Nc2ccc(OCCCN(C)C)c(C)c2)ncc1C(=O)Nc1c(Cl)cccc1Cl [Compound 147, N-(2,6-dichlorophenyl)-2-((4-(3-(dimethylamino)propoxy)-3-methylphenyl)amino)-4-methoxypyrimidine-5-carboxamide] | ≤ 10 nM | > 1000 nM
24 | COc1nc(Nc2ccc(C3CCN(C)CC3)c(C)c2)ncc1C(=O)Nc1c(Cl)cc(F)cc1Cl [Compound 121, N-(2,6-dichloro-4-fluorophenyl)-4-methoxy-2-((3-methyl-4-(1-methylpiperidin-4-yl)phenyl)amino)pyrimidine-5-carboxamide] | ≤ 10 nM | 100 to 500 nM
25 | COc1nc(Nc2ccc(N3CCN(C)CC3)cc2)ncc1C(=O)Nc1c(Cl)cccc1Cl [Compound 111, N-(2,6-dichlorophenyl)-4-methoxy-2-((4-(4-methylpiperazin-1-yl)phenyl)amino)pyrimidine-5-carboxamide] | ≤ 10 nM | 100 to 500 nM

Reference: patent publication US20260207618A1, “PYRIMIDINE CARBOXAMIDE COMPOUNDS” (Acrivon Therapeutics, Inc., priority 2022, published 2026)
